Assay results published in patent US8710246B2, “Substituted thiophene pentamers” (Biochromix Newco AB, priority 2008, dated 2014).
Entries after “also recorded” stand apart in the source; their conditions may differ.

What was measured:
amyloid plaques = assay: 30 days treatment, plaque load by 6E10 IHC and ThioflavinS staining; format: in vivo, mice; conditions: for hippocampal plaque load compared to vehicle: t-test
Procedure: (§1) Starting at 8 months of age, female hAPPSL mice were treated with vehicle only or p-FTAA in 3 dosages for 30 days. The Test Item (T.I.) p-FTAA was administered in 3 dosages in Vehicle. 48 hAPP Tg mice plus 4 reserves allocated to 4 different treatment groups were treated with either vehicle only (control) or with p-FTAA in dosages of 0.1 mg/kg/day, 1 mg/kg/day, or 10 mg/kg/day. As an additional control, 12 nTg littermates of the hAPPSL mice (plus 1 reserve) were treated with vehicle only. Vehicle and T.I.s were administered twice daily intra peritoneal (i.p.) for 30 days.
Following blood sampling, mice were transcardially perfused with physiological (0.9%) saline. The brains were removed from the skull and the cerebellum was cut off, immediately frozen on dry ice and stored at −80° C. The remaining brain was hemisected and the left hemisphere was weighed, immediately frozen on dry ice and stored at −80° C. until A13 analysis. The right hemisphere was fixed with paraformaldehyde as described in section 4.3.1.
The right hemispheres of all Tg mice were fixed by immersion in freshly prepared 4% paraformaldehyde/PBS (pH 7.4) for one hour at room temperature. Thereafter brains were transferred to a 15% sucrose PBS solution for 24 hours to ensure cryoprotection. On the next day, brains were frozen in isopentane and stored at −80° C. until used for histological analysis.
From 6 animals per Tg group, 15 cryo-sections per layer (altogether 5 layers), each 10 μm thick (Leica CM 3050S) were sagittally cut. Brain levels were chosen according to the morphology atlas “The Mouse Brain” from Paxinos and Franklin (2nd edition). The cutting of the five levels started with a random slice corresponding to FIG. 105 (total appearance of the dentate gyrus), then sampling was continued uniformly and systematically, always retaining 15 slices per level in series and discarding 100 μm in between the levels.
Plaque load was quantified by staining with 6E10 IHC directed against AA1-17 of the human amyloid peptide and ThioflavinS staining against beta-sheet structures in a double incubation. Tissues of all investigated animals were handled uniformly.
Descriptive statistical analysis was performed on all evaluated parameters. Data were represented as mean±standard error of mean (SEM). Outliers were detected by Grubbs' test and were excluded from statistical analyses.
Values of the five single measurements (one from each cut level) per animal were integrated to one value per animal (individual mean). Group means were calculated with these integrated values. After Kolmogorov Smirnov normality distribution tests differences were calculated by a parametric ANOVA followed by a Newman Keuls multiple comparison post-hoc test or by a non-parametric Kruskal Wallis ANOVA followed by a Dunn's Multiple comparison test, if Gaussian distribution was missing.

[1] = test system: Human Aβ38, Aβ40 and Aβ42; assay: 30 days treatment, human Aβ determinations in CSF and brain homogenate SDS fraction (Mesoscale immunosorbent assay); format: in vivo, mice
Procedure: as §1
Human Aβ38, Aβ40 and Aβ42 were determined in homogenates of the left brain hemispheres and in CSF samples of all Tg animals by an immunosorbent assay from Mesoscale Discovery
48 hAPP Tg mice plus 4 reserves allocated to 4 different treatment groups were treated with either vehicle only (control) or p-FTAA. As an additional control, 12 nTg littermates of the hAPPSL mice (plus 1 reserve) were treated with vehicle only. Tg hAPPSL mice with a C57BL/6xDBA background and corresponding nTg littermates at an age of 8 months (±2 weeks) were randomly assigned to the treatment groups.
Left hemi-brain samples (without cerebellum) of Tg animals were homogenized and separated. SDS fraction was prepared, after thawing, hemispheres were homogenized with the Homogenizer “Ultra Turrax T8” at highest speed in TBS (20 mM Tris, 137 mM NaCl, pH=7.6; containing protease inhibitor cocktail; 100 mg brain wet weight per ml TBS). One aliquot (1 ml) was centrifuged (74,200×g for 1 h at 4° C.). The pellets were suspended in 1 ml SDS (2% SDS in Aqua bidest), centrifuged as above and the supernatants were kept at −20° C. (SDS fraction).
In the brain homogenate SDS fraction and in CSF of each Tg mouse, human Aβ38, Aβ40 and Aβ42 levels were measured with a Aβ-kit from Mesoscale Discovery. Aβ levels were evaluated in comparison to a peptide standard as pg/mg brain (wet weight) or pg/ml CSF.
Descriptive statistical analysis was performed on all evaluated parameters. Data were represented as mean±standard deviation (SD). Grubb's test was used to detect outliers. Normality distribution of the values was tested with Kolmogorov Smirnov normality distribution test. Group differences between all Tg groups were calculated by a parametric ANOVA followed by a Bonferroni post test.

hAPPSL transgenic mice = assay: 30 days treatment, Morris Water Maze (MWM) test; format: in vivo; conditions: 10 mg/kg, ip 30 days, treatment days 24 to 27
Procedure: as §1
The MWM was performed during 4 days at the end of treatment period (treatment days 24 to 27). […]
The escape latency (the time needed to find the hidden platform and therefore to escape from the water), the swimming path (the length to reach the target), the swimming speed and in the probe trial crossings over the former platform position and the abidance in the target quadrant were evaluated. […]
Descriptive statistical analysis was performed on all evaluated parameters. […] Group differences were calculated by a parametric ANOVA followed by a Bonferroni post test or by a non-parametric Kruskal Wallis ANOVA followed by a Dunn's post test if Gaussian distribution was missing. Learning curves were evaluated by a Two-way ANOVA followed by a Bonferroni post test. […]

Aβ38, Aβ40 or Aβ42 = assay: 14 days treatment, DEA extraction of soluble amyloid beta from brain homogenates; format: in vivo; conditions: data not shown
From the text: We also noted, data not shown, that p-FTAA treatment for 14 days, in 4 months old female […] transgenic mice, led to decreased Aβ38, Aβ40 or Aβ42 levels in the DEA Extraction of [soluble] Amyloid beta from brain homogenates.

In the case of `O=C(O)Cc1cc(-c2ccc(C(=O)O)s2)sc1-c1ccc(-c2sc(-c3ccc(C(=O)O)s3)cc2CC(=O)O)s1` [Compound F], the “decrease in plaque area” value (amyloid plaques; 1 mg/kg, hippocampus) is reported as 40%, the “hippocampal plaque load compared to vehicle” value (amyloid plaques; 1 mg/kg/day, ThioflavinS, listed as p-FTAA) is reported as “Statistical significance; also recorded: significantly lower plaque load” and the “hippocampal plaque load compared to vehicle” value (amyloid plaques; 10 mg/kg/day, ThioflavinS, listed as p-FTAA) is reported as “Statistical significance; also recorded: significantly lower plaque load”. The “plaque load in the cortex” value (amyloid plaques; 0.1, 1, 10 mg/kg/day, ThioflavinS, listed as p-FTAA) was “without significant changes; also recorded: comparable among groups”, the “reduction of diffuse 6E10 IR surrounding the plaque-cores, dose of strongest effect” value (amyloid plaques; 6E10 IHC) was “strongest for the 10 mg/kg p-FTAA treatment” and the “effect on beta-sheet cores, dose of strongest effect” value (amyloid plaques; ThioflavinS) was “strongest effect on beta-sheet cores was observed for the 1 mg/kg p-FTAA treatment”. For the same molecule, the “plaque load, overall effect of treatment” value (amyloid plaques; mainly hippocampus, 6E10 IHC and ThioflavinS) was “reduction of plaque load”, the “Aβ38, Aβ40 and Aβ42 levels in CSF compared to vehicle” value ([1]; 0.1 mg/kg/day ip for 30 days) was “lower mean Aβ levels but statistical significance was observed for Aβ38 only” and the “Aβ38, Aβ40 and Aβ42 levels in CSF compared to vehicle” value ([1]; 1 mg/kg/day ip for 30 days) was “did not differ significantly from the vehicle control”. For the same molecule, the “Aβ38, Aβ40 and Aβ42 levels in CSF compared to vehicle” value ([1]; 10 mg/kg/day ip for 30 days, 8 months old female hAPPSL mice, listed as p-FTAA) was “significantly decreased; also recorded: highly significant”, the “Aβ38, Aβ40 and Aβ42 levels in SDS brain homogenate fraction compared to vehicle” value ([1]; 10 mg/kg/day ip for 30 days, listed as p-FTAA) was “significantly decreased” and the “MWM performance in terms of the swimming path” value (hAPPSL transgenic mice) was “better performance than any other Tg group”. For the same molecule, the “Aβ38, Aβ40 or Aβ42 levels in DEA extraction of soluble amyloid beta from brain homogenates” value (Aβ38, Aβ40 or Aβ42; 4 months old female hAPPSL mice) was “decreased” and the “dose group with the strongest effect on DEA soluble Aβ” value (Aβ38, Aβ40 or Aβ42) was “strongest for 10 mg/kg/day group”.
